Data set [1] deals with IBV (Gray strain). Description: Anti-IBV activity (inhibition of virus replication, MTT method). Format: cell-based, Infectious bronchitis virus. The following applies: Avian coronavirus, Vero, 72 h. As to the method: The IBV Gray strain was purchased from National Control Institute of Veterinatory Bioproducts and Pharmaceuticals (Beijing, P. R. China). Virus was routinely grown on Vero-E6 cells. IBV-Gray stock cultures were prepared from supernatants of infected cells and stored at −80 °C.
Inhibition of virus replication was measured by MTT method. Serial dilution of the treated virus was adsorbed to the cells for 1 h at 37 °C. The residual inoculum was discared and infected cells were added with DMEM containing 2% FCS. Each assay was performed in eight replicates. After incubation for 72 h at 37 °C, the cultures were measured by MTT method as described above.
Background: Tetrazolium assays rely on reduction of a dye to a coloured formazan, in cell work by metabolically active cells.

Data set [2] has as its system IBV (Gray strain).
Experimental: The compound was aspirated and cells were washed immediately before the IBV inoculum was added. […] For analyzing the anti-IBV inhibition during the adsorption period, the same amount of IBV was mixed with the drug and added to the cells immediately. After 1h of adsorption at 37 °C, the inoculum was removed and DMEM supplemented with 2% FCS were added to the cells. […] Each assay was run in eight replicates. Ribavirin was used as a positive control.
For a further data set, the system named is Vero-E6 cells. The data set is described as follows: in vitro. The following applies: Vero cells, 72 h, MTT. The method, then: (§1) Vero-E6 (African green monkey kidney cells) was purchased from Harbin Veterinary Research Institute (Harbin, P. R. China). The cells were grown in monolayer culture with Dulbecco’s modified Eagle’s medium (DMEM) supplemented with 10% fetal calf serum (FCS), 100 U/mL penicillin and 100 μg/mL streptomycin. The monolayers were removed from their plastic surfaces and serially passaged whenever they became confluent. Cells were plated out onto 96-well culture plates for cytotoxicity and anti-IBV assays, and propagated at 37 °C in an atmosphere of 5 % CO2.
(§2) The supernatants were discarded, washed with PBS twice and MTT reagent (5 mg/mL in PBS) was added to each well, after incubated at 37 °C for 4 h, remove the supernatants, then 200 μL DMSO was added and incubated at 37 °C for another 30 min. After that the plates were read on an ELISA reader (Thermo Molecular Devices Co., Union City, USA) at 570/630 nm. The mean OD of the cell control wells was assigned a value of 100%. The maximal non-toxic concentration (TD0) and 50% cytotoxic concentration (CC50) were calculated by linear regression analysis of the dose-response curves generated from the data.

A short description of another data set: in vitro. The following applies: African green monkey. The method, then: as §1, §2

Each structure is given as a SMILES string. Several values for one entry are separate records, joined by “and”; a condition that tells them apart may be missing. Identical values can stand only once.

In turn, `C=C1CCC2CC1C2(C)C` (stereo not drawn) [(-)-β-pinene] yielded a concentration for half-maximal inhibition (IC50) with IBV (Gray strain) [1] of 1320 ± 110 µM. Moreover, the inhibition with IBV (Gray strain) [2] is 81% and 55.4%. Besides, the “TD0 (maximum noncytotoxic concentration)” value in the data set with Vero-E6 cells came to 6.09 ± 0.31 mM. Besides, the CC50 at 72 h in “in vitro” was more than 10000 µM.
Regarding `CC1=CCC2CC1C2(C)C` (stereo not drawn) [(-)-α-pinene], it took 980 ± 250 µM to reach half-maximal inhibition in the data set on IBV (Gray strain) [1] (IC50). In the data set on IBV (Gray strain) [2], the inhibition is 87% and 67.6%. In the data set “in vitro”, this compound returned a CC50 at 72 h of more than 10000 µM.
On to `NC(=O)c1ncn([C@@H]2O[C@H](CO)[C@@H](O)[C@H]2O)n1` [Ribavirin, ribavirin, reference compound], for which it took 118 ± 20 µM to reach half-maximal inhibition with IBV (Gray strain) [1] (IC50). Further, the inhibition in the data set on IBV (Gray strain) [2] turned out to be 90.2 ± 2.8%. Besides, in “in vitro”, the CC50 at 72 h is more than 1000 µM.

One may read the IC50 as the concentration that gives 50% inhibition. A word on the inhibition: it is the drop in the measured response relative to a control, in per cent.
